# Article PMC3681751, “Identification of a Novel Antimicrobial Peptide from Human Hepatitis B Virus Core Protein Arginine-Rich Domain (ARD)” (PLoS Pathogens, 2013)
# Where two headings read alike, the source gives them in different places. Residues, ends and D or L forms follow the SMILES beside them.
# Columns and labels:
# [1] = In vitro peptide-Lipid A binding on streptavidin beads (LAL test); set-up: species or system Escherichia coli; details: biotinylated peptide 0-2.5 µM on streptavidin beads, 200 µg/ml lipid A, triplicates
# Method: (§1) Several kinds of peptide-LPS or peptide-Lipid A binding assays were performed in this study: 1) Streptavidine-conjugated beads (Dynabeads MyOne Streptavidin T1, Invitrogen) were blocked by P. aeruginosa LPS (Sigma) at 37°C for 1.5 hour. After washing with PBST (PBS, pH 7.4 containing 0.1% (w/v) Tween-20), aliquots containing 250 pmol streptavidine-conjugated beads were incubated with a reaction mixture overnight at 4°C. The reaction mixture was prepared by mixing increasing amounts of biotinylated peptide HBc147-183 (0, 0.004, 0.02, 0.1, 0.5 and 2.5 µM) and 5 µg/ml P. aeruginosa LPS (Sigma) or 200 µg/ml E. coli lipid A (Sigma), at 37°C for 3 hour. After incubation overnight at 4°C, the reduction of LPS (or Lipid A) in the supernatants were measured by the Limulus Amebocyte Lysate (LAL) test (Charles River Endosafe) with an ELISA reader (Molecular Devices). The amount (EU/ml) of LPS was calculated according to the standard curve prepared with Endosafe Control Srandard Endotoxin. […] After trypsinization, the trypsin-released LPS in the supernatants were collected and measured by the Limulus Amebocyte Lysate (LAL) test. […] Plate-bound HBc147-183 was measured by streptavidin conjugated with HRP (1∶10000 dilution) for 1 hour at 37°C. […] The absorption was measured at 450 nm with a reference wavelength at 655 nm.
# [2] = In vitro peptide-LPS binding on streptavidin beads (LAL test); set-up: species or system Pseudomonas aeruginosa; details: biotinylated peptide 0-2.5 µM on streptavidin beads, 5 µg/ml LPS; unbound LPS by LAL test; triplicates
# Method: as §1
# K. pneumonia = test: Killing kinetics; assay type: cell-based, Klebsiella pneumoniae; details: 4 µM peptide, 37°C, triplicates
# Method: For measurement of killing kinetics, bacteria and peptides were prepared as described above. Fifty µl of bacteria were mixed with fifty µl of peptides at the concentrations corresponding to MBC and were incubated at 37°C. At the indicated time, bacteria were serially diluted and placed on Mueller-Hinton broth agar plates for the viability measurement.
# Huh 7 cells = test: Peptide uptake into mammalian cells; assay type: cell-based, human; details: data not shown
# C. albicans (ATCC 10231) = assay type: cell-based, Candida albicans
# Method: The antimicrobial activities of HBc ARD peptides were tested using a number of bacterial strains from ATCC, including Pseudomonas aeruginosa Migula strain (ATCC 27853, ampicillin-resistant), Pseudomonas aeruginosa Migula strain (ATCC 9027, ampicillin-resistant), Klebsiella pneumoniae strain (ATCC 17593), Escherichia coli strain (ATCC 25922), Staphylococcus aureus subsp. strain (ATCC 25923, methicillin-resistant), Staphylococcus aureus subsp. strain (ATCC 29213, methicillin-resistant), Staphylococcus aureus subsp. strain (ATCC 19636, methicillinresistant), and Candida albicans strain (ATCC 10231).
# All peptides were purchased from Yao-Hong Biotechnology Inc. (Taipei, Taiwan). Vendors provided data of peptide characterizations, including HPLC and Mass (data not shown). Antimicrobial activity was determined as described with some modifications as detailed below. Bacteria were grown overnight in Mueller–Hinton broth (Difco) at 37°C, and during the mid-logarithmic phase, bacteria were diluted to 10^6 CFU (colony formation unit)/ml in phosphate buffer (10 mM sodium phosphate and 50 mM sodium chloride, pH 7.2). Peptides were serially diluted in the same buffer. Fifty microliter (µl) of bacteria was mixed with fifty µl of peptides at varying concentrations followed by incubation at 37°C for 3 hours without shaking. At the end of incubation, bacteria were placed on Mueller-Hinton broth agar plates, and allowed growth at 37°C overnight for measurement of minimal bactericidal concentration (MBC). […] All peptides were tested in triplicate.
smiles,measurement,setting,value
CC(C)[C@H](NC(=O)[C@@H](NC(=O)[C@@H](N)[C@@H](C)O)C(C)C)C(=O)N[C@@H](CCCNC(=N)N)C(=O)N[C@@H](CCCNC(=N)N)C(=O)N[C@@H](CCCNC(=N)N)C(=O)NCC(=O)N[C@@H](CCCNC(=N)N)C(=O)N[C@@H](CO)C(=O)N1CCC[C@H]1C(=O)N[C@@H](CCCNC(=N)N)C(=O)N[C@@H](CCCNC(=N)N)C(=O)N[C@@H](CCCNC(=N)N)C(=O)N[C@H](C(=O)N1CCC[C@H]1C(=O)N[C@@H](CO)C(=O)N1CCC[C@H]1C(=O)N[C@@H](CCCNC(=N)N)C(=O)N[C@@H](CCCNC(=N)N)C(=O)N[C@@H](CCCNC(=N)N)C(=O)N[C@@H](CCCNC(=N)N)C(=O)N[C@@H](CO)C(=O)N[C@@H](CCC(N)=O)C(=O)N[C@@H](CO)C(=O)N1CCC[C@H]1C(=O)N[C@@H](CCCNC(=N)N)C(=O)N[C@@H](CCCNC(=N)N)C(=O)N[C@@H](CCCNC(=N)N)C(=O)N[C@@H](CCCNC(=N)N)C(=O)N[C@@H](CO)C(=O)N[C@@H](CCC(N)=O)C(=O)N[C@@H](CO)C(=O)N[C@@H](CCCNC(=N)N)C(=O)N[C@@H](CCC(=O)O)C(=O)N[C@@H](CO)C(=O)N[C@@H](CCC(N)=O)C(=O)N[C@@H](CS)C(=O)O)[C@@H](C)O [HBc147-183] (H-TVVRRRGRSPRRRTPSPRRRRSQSPRRRRSQSRESQC-OH; N-terminus and C-terminus assumed),Binding to Lipid A,[1],Lipid A can bind to HBc147-183 directly
same,Binding to LPS,[2],capable of binding to LPS
same,Time to complete killing,K. pneumonia,180 min
same,Penetration through the cell membrane,Huh 7 cells,can penetrate through the cell membrane
same,"Antimicrobial activity, MBC","C. albicans (ATCC 10231); ATCC 10231, 3 h, pH 7.2",~8 µM
same,"Antimicrobial activity, MBC","C. albicans (ATCC 10231); fungi, 3 h at 37°C in phosphate buffer pH 7.2, triplicate",~36.7 µg/mL
